Experiments:
GABAA receptor = conditions: cited from earlier work
α1β3γ2L GABAA receptors [1] = biological target: T1, α1β3γ2L GABAA receptors (Homo sapiens, UniProt P14867+P18507+P28472); type: cell-based
zebrafish larvae = assay: Zebrafish larvae photomotor response; type: in vivo, Danio rerio; conditions: for EC50: Danio rerio, read-out: EC50 for abolishing zebrafish larvae motor responses to a light stimulus
α1β3γ2L GABAA receptors [2] = biological target: T1, α1β3γ2L GABAA receptors; type: cell-based; remark: listed apart in the source
α1β3γ2L GABAA receptors [3] = biological target: T1, α1β3γ2L GABAA receptors; type: cell-based; conditions: for IC50: IC50 for antagonizing direct activation by 20 μM etomidate in the presence of flumazenil, [Benzodiazepine]:[Flumazenil] = 1:2
[4] = biological target: purified α1β3γ2L GABAA receptors (Homo sapiens, UniProt P14867+P18507+P28472); assay: Inhibition of R-[3H]azietomidate photoaffinity labeling of purified receptors; conditions: at up to 300 μM
Chain of purified α1β3γ2L GABAA receptors (P14867 28-456): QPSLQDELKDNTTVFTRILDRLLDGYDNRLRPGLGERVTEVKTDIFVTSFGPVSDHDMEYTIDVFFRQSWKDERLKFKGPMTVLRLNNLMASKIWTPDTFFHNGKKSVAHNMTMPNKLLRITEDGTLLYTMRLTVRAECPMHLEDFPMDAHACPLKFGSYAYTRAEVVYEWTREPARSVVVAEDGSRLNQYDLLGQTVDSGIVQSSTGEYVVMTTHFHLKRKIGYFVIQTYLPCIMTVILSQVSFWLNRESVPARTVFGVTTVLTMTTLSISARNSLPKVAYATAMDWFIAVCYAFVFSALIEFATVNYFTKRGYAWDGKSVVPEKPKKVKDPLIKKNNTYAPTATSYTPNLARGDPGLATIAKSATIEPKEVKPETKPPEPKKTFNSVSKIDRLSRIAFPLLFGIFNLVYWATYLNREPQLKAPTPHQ
Chain of purified α1β3γ2L GABAA receptors (P28472 26-473): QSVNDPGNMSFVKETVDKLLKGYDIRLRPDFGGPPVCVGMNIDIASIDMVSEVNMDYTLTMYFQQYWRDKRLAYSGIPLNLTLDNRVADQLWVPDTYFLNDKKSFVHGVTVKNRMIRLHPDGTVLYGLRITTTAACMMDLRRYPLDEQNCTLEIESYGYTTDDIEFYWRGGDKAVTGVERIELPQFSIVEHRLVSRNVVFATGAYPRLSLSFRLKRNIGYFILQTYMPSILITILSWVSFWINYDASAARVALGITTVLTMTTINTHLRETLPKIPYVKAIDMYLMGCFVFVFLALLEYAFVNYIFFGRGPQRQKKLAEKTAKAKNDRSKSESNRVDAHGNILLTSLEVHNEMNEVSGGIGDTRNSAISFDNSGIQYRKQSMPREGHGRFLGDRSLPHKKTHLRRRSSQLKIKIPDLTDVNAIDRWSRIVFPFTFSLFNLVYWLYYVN
Chain of purified α1β3γ2L GABAA receptors (P18507 40-475): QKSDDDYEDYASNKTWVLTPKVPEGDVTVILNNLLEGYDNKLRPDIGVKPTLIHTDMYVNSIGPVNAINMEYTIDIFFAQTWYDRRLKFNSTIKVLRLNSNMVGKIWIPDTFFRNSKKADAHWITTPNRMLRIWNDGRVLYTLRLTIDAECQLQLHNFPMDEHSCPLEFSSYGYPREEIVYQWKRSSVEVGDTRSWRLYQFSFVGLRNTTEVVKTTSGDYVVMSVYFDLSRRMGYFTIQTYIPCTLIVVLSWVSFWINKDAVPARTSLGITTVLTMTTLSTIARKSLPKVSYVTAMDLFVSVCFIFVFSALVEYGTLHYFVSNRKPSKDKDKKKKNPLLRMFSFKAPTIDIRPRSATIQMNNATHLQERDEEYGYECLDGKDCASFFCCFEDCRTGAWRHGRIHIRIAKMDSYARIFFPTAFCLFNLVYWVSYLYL

purified GABAA receptors = conditions: cited from earlier work

T1 sequence (P14867 28-456): as the sequence (P14867 28-456) above
T1 sequence (P28472 26-473): as the sequence (P28472 26-473) above
T1 sequence (P18507 40-475): as the sequence (P18507 40-475) above

## CN1C(=O)CN=C(c2ccccc2)c2cc(Cl)ccc21 [Diazepam]
GABAA receptor
  potentiation of currents activated by low concentrations of GABA via the etomidate binding site: no more than two- to threefold
α1β3γ2L GABAA receptors [1]; against etomidate direct activation, flumazenil present (1:4)
  Schild slope: 1.1
Zebrafish larvae; 50 μM, alone, no flumazenil
  effect on zebrafish larvae motor responses to light stimulus: essentially abolishes
α1β3γ2L GABAA receptors [2]; 6 μM GABA
  reduction of GABA-activated peak current amplitudes at micromolar concentrations: did not see a similar reduction

## Clc1ccc2c(c1)C(c1ccccc1)=NCc1nncn1-2 [Estazolam]
α1β3γ2L GABAA receptors [3]
  IC50: 59 µM

## CN1C(=O)CN=C(c2ccccc2F)c2cc(Cl)ccc21 [Fludiazepam]
α1β3γ2L GABAA receptors [3]
  IC50: 390 µM
α1β3γ2L GABAA receptors [3]; relative to diazepam
  etomidate inhibitory potency, fold lower than diazepam: 30 ×

## CCOC(=O)c1ncn2c1CN(C)C(=O)c1cc(F)ccc1-2 [Flumazenil]
α1β3γ2L GABAA receptors [3]; data not shown
  impact on etomidate-activated currents in the absence of diazepam: no impact
α1β3γ2L GABAA receptors [2]; data not shown
  impact on GABA-activated currents in the absence of diazepam: no impact
[4]
  effect on R-[3H]azietomidate photo-incorporation: little inhibitory effect

## O=C1Nc2ccc(Cl)cc2C(c2ccccc2Cl)=NC1O (stereo not drawn) [Lorazepam]
α1β3γ2L GABAA receptors [3]
  IC50: ≥ 1000 µM

## CN1CCN=C(c2ccccc2)c2cc(Cl)ccc21 [Medazepam]
α1β3γ2L GABAA receptors [3]
  IC50: ≥ 1000 µM

## Cc1ncc2n1-c1ccc(Cl)cc1C(c1ccccc1F)=NC2 [Midazolam]
α1β3γ2L GABAA receptors [3]
  IC50: 560 µM

## O=C1CN=C(c2ccccc2)c2cc([N+](=O)[O-])ccc2N1 [Nitrazepam]
α1β3γ2L GABAA receptors [3]
  IC50: 130 µM

## O=C1CN=C(c2ccccc2)c2cc(Cl)ccc2N1 [Nordiazepam]
α1β3γ2L GABAA receptors [3]
  IC50: 32 µM

## CCOC(=O)c1cncn1[C@H](C)c1ccccc1 [etomidate]
GABAA receptor; high concentrations
  potentiation of currents activated by low concentrations of GABA: more than an order of magnitude
α1β3γ2L GABAA receptors [1]; Schild analysis
  Hill slope of etomidate concentration-response curve: 2.1
Zebrafish larvae
  EC50: 0.66 µM

## CN1C(=O)CN=C(c2ccccc2F)c2cc([N+](=O)[O-])ccc21 [flunitrazepam]
Purified GABAA receptors
  reduction in apparent affinity with purified GABAA receptors: sevenfold

## CNC1(c2ccccc2Cl)CCCCC1=O (stereo not drawn) [ketamine]
Zebrafish larvae
  EC50: 170 µM
Zebrafish larvae; by 50 μM diazepam plus 200 μM flumazenil
  fold leftward shift of anesthetic concentration-response curve: 19 fold

Source: paper PMC7944240 (Anesthesiology, 2020)
